Where “and” joins values, the source holds several entries; their conditions need not be identical. Equal values may be shown once. Marks after values point to notes of the source that are not given here.
What was measured:
[1] = in vivo
Procedure: In Part one of the study, plasma PK analysis of Dihomo-Gamma-Linolenic Acid (DGLA) and 15-Hydroxyeicosatrienoic acid (15-HETrE), in fasted subjects alone, was performed for Cohorts one to four up to 312 hours post dose on study Days 1 to 5, 8, 14, and the follow-up visit.
Analysis of plasma concentrations of DGLA (free and total) and free 15-HETrE were performed in blood samples obtained from the subjects.
Analysis of all plasma and skin blister fluid samples was performed using validated methods. Concentrations of free and total DGLA were measured in plasma and skin blister fluid by liquid chromatography with tandem mass spectrometry (LC/MS/MS); the quantitation range was 100 to 10,000 ng/mL for free DGLA and 5000 to 500,000 ng/mL for total DGLA. Plasma concentrations of free 15-HETrE were measured by LC/MS/MS with a quantitation range of 100 to 10,000 ng/mL.

[2] = system: spontaneous hypertensive rats; experiment: Arterial pressure and phenylephrine-induced hypertensive response after seven days of gavage (DGLA, aspirin, DGLA + aspirin); type: in vivo, rat
Procedure: An in vivo investigation of anti-hypertension efficacy following co-administration of DGLA and aspirin in spontaneous hypertensive rats was conducted. This experiment investigated the efficacy of DGLA when co-administered chronically with aspirin to reduce the hypertensive response induced acutely by phenylephrine in spontaneous hypertensive rats. Spontaneously hypertensive adult male rats (250-300 g), bred by Charles River Laboratories, were used for this assay. The animals were identified upon arrival as per CCPA guidelines. The animals were pair-housed by group (low dose+aspirin, high dose+aspirin or aspirin alone) for the duration of the oral gavage prior to surgery. All animal care and vivarium maintenance was recorded, with documents kept at the test facility.
The concentrations of DGLA to be tested (50 and 500 mg/kg) as well as the concentration of aspirin (10 mg/kg) were selected by the Sponsor based on information available at the time of design of this study. They were selected to cover a range of concentrations useful for the identification of the mechanism of action of the test article.
All solution preparations were documented on a Solution Contents Form, defining labelling information and all relevant information on reagents: batch number, storage conditions, contents, and preparation/expiry dates.
The test article was formulated using olive oil as the vehicle. This stock solution was then administered by oral gavage once per day for seven consecutive days. A low and a high dose (50 mg/kg and 500 mg/kg) were tested.
A 5 mg/ml stock solution of aspirin was prepared by dissolving the appropriate amount of aspirin in 100% DMSO which was then diluted in water. The concentration of DMSO was less than 1%. The appropriate volume was administered by oral gavage to each animal once per day for seven consecutive days. The stock solution was stored at room temperature and was considered stable for the duration of the gavage.
The appropriate volume was administered to each animal by an intravenous injection at the end of the experiment on the surgery day. The stock solution was stored at 4° C. and was considered stable for the duration of the experiment.
A stock solution of phenylephrine of 1 mg/ml were prepared in PBS (pH=7.4±0.05). The stock solution was stored at 4° C. The expiration date was set at 14 days after preparation.
Male spontaneous hypertensive rats weighing approximately 300 g arrived at the facility at least two days before beginning the oral gavage. Animals were assigned to one of three groups (low dose+aspirin, high dose+aspirin, and aspirin), and were pair-housed during the acclimation period. Each group (n=4) received the appropriate compound by oral gavage using a 16 G feeding needle. The stock solution was administered once per day for seven consecutive days. On the seventh day of administration, the animals underwent surgery and hypertensive monitoring.
Rats were anesthetized with a 2.5-3.0% isoflurane-O2 mixture in an induction box. When the animals were removed from the induction box, they were connected onto a nose cone to maintain anesthesia during the tracheotomy. The animals were tracheotomised with an endotracheal tube (7 cm length from connector to the tip made with a PE205 tube from BD and a 16 G needle) to facilitate spontaneous breathing, stabilize hemodynamics, and to keep the rat under anesthesia with an isoflurane-O2 mixture. Two catheters were inserted: one in the right femoral artery for systemic arterial pressure (SAP) measurement, and one in the right femoral vein for delivery of the hypertensor and positive control. ECG signals were acquired with ECG contacts placed in a Lead-1 configuration on the anaesthetized animal, and a pulse oxymeter was attached to the animal's hind paw to enable continuous monitoring of the general condition of the rat during the surgical procedure.

[3] = Aspirin 10 mg/kg, seven days of gavage, before phenylephrine
[4] = aspirin only (10 mg/kg), seven consecutive days of gavage
[5] = aspirin only (10 mg/kg), seven consecutive days of gavage, Rat #1-#5

CCCCC[C@H](O)/C=C/C=C\C/C=C\CCCCCCC(=O)O [15-HETrE, 15-Hydroxyeicosatrienoic acid]
plasma free 15-HETrE concentrations after DS107G [1]: < 100 ng/mL

CC(=O)Oc1ccccc1C(=O)O [Aspirin, aspirin]
Arterial pressure, Diastol [2, 3]: 100 mmHg | Arterial pressure, Systol [2, 3]: 190 mmHg | Mean systemic arterial pressure [2, 3]: 130 mmHg | Mean arterial pressure at baseline, Average SAP [2, 4]: 136.8 mm of Hg | Mean arterial pressure with an intravenous dose of Phenylephrine 20 μg/kg, Average SAP [2, 4]: 174.3 mm of Hg | Mean arterial pressure at baseline, individual rats [2, 5]: 86.75 mm of Hg and 107.64 mm of Hg and 160.50 mm of Hg and 141.36 mm of Hg and 187.84 mm of Hg | Mean arterial pressure with an intravenous dose of Phenylephrine 20 μg/kg, individual rats [2, 5]: 149.35 mm of Hg and 120.84 mm of Hg and 202.61 mm of Hg and 194.76 mm of Hg and 203.90 mm of Hg | Mean Arterial Pressure, individual rats ([2]; gavage Aspirin 10 mg/kg 7 days, Baseline): 86.75 mmHg and 107.64 mmHg and 160.50 mmHg and 141.36 mmHg and 187.84 mmHg | Mean Arterial Pressure, Average ([2]; gavage Aspirin 10 mg/kg 7 days, Baseline, n=5): 136.8 mmHg | Mean Arterial Pressure, individual rats ([2]; gavage Aspirin 10 mg/kg 7 days, PHE 3 μg/kg iv): 97.24 mmHg and 122.18 mmHg and 168.06 mmHg and 150.54 mmHg and 192.06 mmHg | Mean Arterial Pressure, Average ([2]; gavage Aspirin 10 mg/kg 7 days, PHE 3 μg/kg iv, n=5): 146.0* mmHg | Mean Arterial Pressure, individual rats ([2]; gavage Aspirin 10 mg/kg 7 days, PHE 10 μg/kg iv): 137.63 mmHg and 122.18 mmHg and 203.75 mmHg and 169.61 mmHg and 201.69 mmHg | Mean Arterial Pressure, individual rats ([2]; gavage Aspirin 10 mg/kg 7 days, PHE 10 μg/kg iv after Carvedilol): 93.22 mmHg and 52.61 mmHg and 185.63 mmHg and 171.45 mmHg and 187.96 mmHg | Mean Arterial Pressure, Average ([2]; gavage Aspirin 10 mg/kg 7 days, PHE 10 μg/kg iv after Carvedilol, n=5): 138.2 § mmHg | Mean Arterial Pressure, Average ([2]; gavage Aspirin 10 mg/kg 7 days, PHE 10 μg/kg iv, n=5): 167.0* mmHg | Mean Arterial Pressure, individual rats ([2]; gavage Aspirin 10 mg/kg 7 days, PHE 20 μg/kg iv): 149.35 mmHg and 120.84 mmHg and 202.61 mmHg and 194.76 mmHg and 203.90 mmHg | Mean Arterial Pressure, Average ([2]; gavage Aspirin 10 mg/kg 7 days, PHE 20 μg/kg iv, n=5): 174.3* mmHg | Mean Arterial Pressure, individual rats ([2]; gavage Aspirin 10 mg/kg 7 days, second Baseline after PHE 20 μg/kg): 98.38 mmHg and 64.32 mmHg and 164.88 mmHg and 159.32 mmHg and 177.61 mmHg | Mean Arterial Pressure, Average ([2]; gavage Aspirin 10 mg/kg 7 days, second Baseline after PHE 20 μg/kg, n=5): 132.9** mmHg

COc1ccccc1OCCNCC(O)COc1cccc2[nH]c3ccccc3c12 (stereo not shown) [Carvedilol, carvedilol]
effect on blood pressure ([2]; 0.1 mg/kg iv, DGLA+aspirin-fed animals): significant decrease in blood pressure | effect on mean systemic arterial pressure when added after phenylephrine ([2]; 0.1 mg/kg iv, aspirin-fed rats): significant decrease | Mean Arterial Pressure, individual rats ([2]; gavage Aspirin 10 mg/kg 7 days, Carvedilol 0.1 mg/kg iv): 57.12 mmHg and 44.38 mmHg and 145.56 mmHg and 134.82 mmHg and 115.06 mmHg | Mean Arterial Pressure, individual rats ([2]; gavage DGLA 50 mg/kg + Aspirin 10 mg/kg 7 days, Carvedilol 0.1 mg/kg iv): 115.29 mmHg and 97.01 mmHg and 126.33 mmHg and 59.10 mmHg and 58.93 mmHg | Mean Arterial Pressure, Average SAP ([2]; gavage DGLA 50 mg/kg + Aspirin 10 mg/kg 7 days, Carvedilol 0.1 mg/kg iv, n=5): 91.3 † mmHg | Mean Arterial Pressure, individual rats ([2]; gavage DGLA 500 mg/kg + Aspirin 10 mg/kg 7 days, Carvedilol 0.1 mg/kg iv): 62.13 mmHg and 57.56 mmHg and 57.32 mmHg and 52.11 mmHg | Mean Arterial Pressure, Average SAP ([2]; gavage DGLA 500 mg/kg + Aspirin 10 mg/kg 7 days, Carvedilol 0.1 mg/kg iv, n=4): 57.3 † mmHg

CNC[C@H](O)c1cccc(O)c1 [phenylephrine]
hypertensor effect on mean systemic arterial pressure ([2]; 3, 10, 20 μg/kg iv, rats fed with aspirin): increased mean systemic arterial pressure with increasing doses

Source: patent publication US20180333382A1, “PHARMACEUTICAL COMPOSITIONS COMPRISING DGLA AND USE OF SAME” (DS Biopharma Limited, priority 2017, published 2018)
